Results taken from patent US9605004B2, “Chemical compounds” (SYNGENTA LIMITED, priority 2013, dated 2017).

What was measured:
[1] = tested on: a variety of test species; assay: Pre-emergence herbicidal activity (Example 8a, Table 2); type: in vivo; design: key: 0 = no damage to plant, 5 = total damage to plant; conditions: application pre-emergence, rate 1000 g/ha, evaluated after 13 days
Description: Seeds of a variety of test species were sown in standard soil in pots. After cultivation for one day (pre-emergence) under controlled conditions in a glasshouse (at 24/16° C., day/night; 14 hours light; 65% humidity), the plants were sprayed with an aqueous spray solution derived from the formulation of the technical active ingredient in acetone/water (50:50) solution containing 0.5% Tween 20 (polyoxyethelyene sorbitan monolaurate, CAS RN 9005-64-5). The test plants were then grown in a glasshouse under controlled conditions (at 24/16° C., day/night; 14 hours light; 65% humidity) and watered twice daily. After 13 days, the test was evaluated (5=total damage to plant; 0=no damage to plant).

[2] = tested on: a variety of test species; assay: Post-emergence herbicidal activity (Example 8b, Table 3); type: in vivo; conditions: application post-emergence, rate 1000 g/ha, evaluated after 13 days, scale 0-5; for Herbicidal damage score, ABUTH: Abutilon theophrasti; for Herbicidal damage score, ALOMY: Alopecurus myosuroides; for Herbicidal damage score, AMARE: Amaranthus retroflexus; for Herbicidal damage score, ECHCG: Echinochloa crus-galli; for Herbicidal damage score, SETFA: Setaria faberi; for Herbicidal damage score, ZEAMX: Zea mays
Description: Seeds of a variety of test species were sown in standard soil in pots. After 8 days cultivation (post-emergence) under controlled conditions in a glasshouse (at 24/16° C., day/night; 14 hours light; 65% humidity), the plants were sprayed with an aqueous spray solution derived from the formulation of the technical active ingredient in acetone/water (50:50) solution containing 0.5% Tween 20 (polyoxyethelyene sorbitan monolaurate, CAS RN 9005-64-5). The test plants were then grown in a glasshouse under controlled conditions (at 24/16° C., day/night; 14 hours light; 65% humidity) and watered twice daily. After 13 days, the test was evaluated (5=total damage to plant; 0=no damage to plant).

Row | SMILES | Pre-emergence herbicidal activity, damage score ABUTH [1] | Pre-emergence herbicidal activity, damage score ALOMY [1] | Pre-emergence herbicidal activity, damage score AMARE [1] | Pre-emergence herbicidal activity, damage score ECHCG [1] | Pre-emergence herbicidal activity, damage score SETFA [1] | Pre-emergence herbicidal activity, damage score ZEAMX [1] | Herbicidal damage score, ABUTH [2] | Herbicidal damage score, ALOMY [2] | Herbicidal damage score, AMARE [2] | Herbicidal damage score, ECHCG [2] | Herbicidal damage score, SETFA [2] | Herbicidal damage score, ZEAMX [2]
1 | CC1=C(Cl)C(=O)N(c2cc(I)n(C)n2)C1O (centres unmarked) [Compound B8, 4-chloro-2-hydroxy-1-(5-iodo-1-methyl-pyrazol-3-yl)-3-methyl-2H-pyrrol-5-one] | 4 | 4 | 5 | 4 | 5 | 3 | 5 | 5 | 5 | 5 | 5 | 4
2 | CC1=C(Cl)C(=O)N(c2cc(Cl)n(C)n2)C1O (centres unmarked) [Compound B9] | 4 | 3 | 5 | 4 | 5 | 2 | 5 | 5 | 5 | 5 | 5 | 5
3 | CC(C)=CCc1cc(N2C(=O)C(Cl)=C(C)C2O)nn1C (centres unmarked) [Compound B10, 4-chloro-2-hydroxy-3-methyl-1-[1-methyl-5-(3-methylbut-2-enyl)pyrazol-3-yl]-2H-pyrrol-5-one] | 0 | 0 | – | 0 | 0 | 0 | 3 | 0 | 0 | 2 | 5 | 2
4 | CC1=C(Cl)C(=O)N(c2cc(/C=C/C(C)(C)C)n(C)n2)C1O (centres unmarked) [Compound B11] | 2 | 2 | 4 | 4 | 3 | 2 | 5 | 3 | 5 | 5 | 5 | 1
5 | CC1=C(Cl)C(=O)N(c2cc(C3=CCC(C)(C)CC3)n(C)n2)C1O (centres unmarked) [Compound B12] | 4 | 0 | 1 | 0 | 2 | 1 | 1 | 1 | 2 | 1 | 1 | 1
6 | CC1=C(Cl)C(=O)N(c2cc(C(F)(F)C(F)(F)F)n(C)n2)C1O (centres unmarked) [Compound B13] | 5 | 4 | 5 | 5 | 5 | 2 | 5 | 5 | 5 | 5 | 5 | 3
7 | CC1=C(Cl)C(=O)N(c2cc(C(C)C)n(C)n2)C1O (centres unmarked) [Compound B14] | 5 | 3 | 5 | 5 | 4 | 2 | 5 | 4 | 5 | 5 | 4 | 5
8 | CC1=C(Cl)C(=O)N(c2ccn(C)n2)C1O (centres unmarked) [Compound B15] | 4 | 3 | 5 | 4 | 4 | 2 | 4 | 3 | 4 | 4 | 2 | 1
9 | CC1=C(Cl)C(=O)N(c2cc(I)n(C)n2)C1O (centres unmarked) [Compound B16] | 4 | 4 | – | 4 | – | 3 | – | – | – | – | – | 4
10 | CC1=C(Cl)C(=O)N(c2cc(/C=C/C(C)(C)C)n(C)n2)C1O (centres unmarked) [Compound B17] | 2 | 2 | 4 | 4 | 3 | 2 | 5 | 3 | 5 | 5 | 5 | 1
11 | CC1=C(Cl)C(=O)N(c2cc(Cl)n(C)n2)C1O (centres unmarked) [Compound B18] | 4 | 3 | 5 | 4 | 5 | 2 | 5 | 5 | 5 | 5 | 5 | 5
12 | CC(C)=Cc1cc(N2C(=O)C(Cl)=C(C)C2O)nn1C (centres unmarked) [Compound B20] | 4 | 2 | 4 | 4 | 4 | 2 | – | 4 | – | – | – | 2
13 | C/C=C/c1cc(N2C(=O)C(Cl)=C(C)C2O)nn1C (centres unmarked) [Compound B21] | 2 | 3 | 4 | 4 | 3 | 0 | 4 | 2 | 4 | 4 | 5 | 0
14 | CC(C)=CCc1cc(N2C(=O)C(Cl)=C(C)C2O)nn1C (centres unmarked) [Compound B22] | 0 | 0 | – | 0 | 0 | 0 | 3 | 0 | 0 | 2 | – | 2
15 | C=CCC(C)(C)c1cc(N2C(=O)C(Cl)=C(C)C2O)nn1C (centres unmarked) [Compound B23] | – | 4 | – | 4 | – | 4 | – | – | – | – | – | 4
16 | CC1=C(Cl)C(=O)N(c2cc(Cc3ccccc3)n(C)n2)C1O (centres unmarked) [Compound B24] | 3 | 3 | 3 | 3 | 3 | 0 | 5 | 4 | 5 | 5 | 5 | 1
